Source: patent US12252524B2, “GIP/GLP1 co-agonist compounds” (Eli Lilly and Company, priority 2018, dated 2025)
Numbered stars: 1 amine (or outer) side, 2 acyl side, 3 side chain; on linkers, the order of the positions; unused ones are H or OH. Square brackets hold non-standard residues; d marks the D form. Side chains are listed from the residue outwards. Peptide text beside a SMILES is read from it. * marks the point of attachment. C20 diacid = O=C(O)CCCCCCCCCCCCCCCCCCC(=O)*; C18 diacid = O=C(O)CCCCCCCCCCCCCCCCC(=O)*; αMePhe(2-F) = C[C@](N)(Cc1ccccc1F)C(=O)O; γGlu = O=C(O)[C@H](CCC(=O)[*:2])N[*:1]; 4Pal = N[C@@H](Cc1ccncc1)C(=O)O; αMeL = CC(C)C[C@](C)(N)C(=O)O; Dab = NCC[C@H](N)C(=O)O; AEEA = NCCOCCOCC(=O)O; Aib = CC(C)(N)C(=O)O

What was measured:
human GIP receptor = target: T1, human GIP receptor (Homo sapiens, UniProt P48546); assay: [125I]-GIP binding (SPA), human GIP receptor; conditions: read-out: hGIPR Ki, nM (SEM, n)
T1 construct: expressed in transfected cells; crude membranes
T1 sequence (P48546 22-466): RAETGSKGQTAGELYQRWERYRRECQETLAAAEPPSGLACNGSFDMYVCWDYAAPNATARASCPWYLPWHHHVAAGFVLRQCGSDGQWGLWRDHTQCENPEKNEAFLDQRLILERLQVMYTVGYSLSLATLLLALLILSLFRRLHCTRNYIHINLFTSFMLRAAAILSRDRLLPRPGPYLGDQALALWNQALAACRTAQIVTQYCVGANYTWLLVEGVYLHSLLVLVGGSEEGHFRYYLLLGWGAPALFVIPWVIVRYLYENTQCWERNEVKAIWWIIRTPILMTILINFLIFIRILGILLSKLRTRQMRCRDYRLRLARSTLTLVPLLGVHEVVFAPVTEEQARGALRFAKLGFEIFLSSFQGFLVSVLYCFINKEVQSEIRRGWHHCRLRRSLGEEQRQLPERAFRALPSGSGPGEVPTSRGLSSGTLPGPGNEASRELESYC

human Gcg receptor = target: T2, human Gcg receptor (Homo sapiens, UniProt P47871); assay: [125I]-Glucagon binding (SPA), human Gcg receptor; conditions: read-out: hGLcgR Ki, nM (SEM, n)
T2 construct: expressed in transfected cells; crude membranes
T2 sequence (P47871 26-477): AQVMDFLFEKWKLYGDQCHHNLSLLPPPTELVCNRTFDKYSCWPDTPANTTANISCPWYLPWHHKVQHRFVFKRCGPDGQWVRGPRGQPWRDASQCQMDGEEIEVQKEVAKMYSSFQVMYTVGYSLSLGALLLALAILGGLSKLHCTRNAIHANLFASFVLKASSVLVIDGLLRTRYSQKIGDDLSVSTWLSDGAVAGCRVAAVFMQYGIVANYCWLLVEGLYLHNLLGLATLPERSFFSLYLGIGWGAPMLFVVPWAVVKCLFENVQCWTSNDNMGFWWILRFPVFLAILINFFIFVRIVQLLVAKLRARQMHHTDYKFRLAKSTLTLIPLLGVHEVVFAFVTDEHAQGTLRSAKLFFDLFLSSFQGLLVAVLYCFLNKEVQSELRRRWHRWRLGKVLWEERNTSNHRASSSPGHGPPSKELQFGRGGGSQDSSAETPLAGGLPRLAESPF
Outline: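 Crude membranes from cells expressing the receptor, prepared by hypotonic lysis in 50 mM Tris HCl pH 7.5 with protease inhibitors, homogenization and differential centrifugation, were used in a WGA-bead SPA. Binding buffer: 25 mM HEPES pH 7.4, 2.5 mM CaCl2, 1 mM MgCl2, bacitracin, Tween-20.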

[1] = target: T3, gastric inhibitory peptide receptor (GIPR) (Homo sapiens, UniProt P48546); assay: cAMP pharmacological functional assay in presence of casein, hGIPR; assay type: cell-based; conditions: HEK293 cells expressing hGIPR, 0.1% Casein, geometric mean; read-out: hGIPR cAMP Rel EC50 nM (SEM, n)
T3 sequence (P48546 22-466): T1 sequence (P48546 22-466)

human GLP-1R = human GLP-1R (Homo sapiens, UniProt P43220); assay: [125I]-GLP-1 binding (SPA), human GLP-1 receptor; set-up: expressed in transfected cells; crude membranes; conditions: read-out: hGLP1R Ki, (nM) (SEM, n)
human GLP-1R, sequence (P43220 24-463): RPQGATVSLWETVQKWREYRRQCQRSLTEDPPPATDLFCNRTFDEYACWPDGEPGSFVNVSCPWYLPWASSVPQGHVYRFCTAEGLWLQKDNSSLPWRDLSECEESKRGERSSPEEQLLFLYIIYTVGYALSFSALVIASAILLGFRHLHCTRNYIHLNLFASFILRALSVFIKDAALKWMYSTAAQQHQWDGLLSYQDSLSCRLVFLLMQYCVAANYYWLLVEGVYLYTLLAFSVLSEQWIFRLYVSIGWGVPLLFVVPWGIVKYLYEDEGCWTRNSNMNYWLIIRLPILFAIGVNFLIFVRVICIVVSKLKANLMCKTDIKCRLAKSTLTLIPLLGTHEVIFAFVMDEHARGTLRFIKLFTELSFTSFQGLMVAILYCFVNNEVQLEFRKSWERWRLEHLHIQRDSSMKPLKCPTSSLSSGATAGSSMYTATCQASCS
Outline: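 Membranes: hypotonic lysis (50 mM Tris HCl, pH 7.5, protease inhibitors), Potter-Elvehjem homogenization, high-speed pellet (35000×g 1 h or 25000×g 30 min, 4° C.). Buffer: 25 mM HEPES pH 7.4, 2.5 mM CaCl2, 1 mM MgCl2. Four-parameter IC50 fit; Ki as geometric mean ± SEM.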

[2] = target: human GLP-1 receptor (GLP-1R) (Homo sapiens, UniProt P43220); assay: cAMP pharmacological functional assay in presence of casein, hGLP-1R; assay type: cell-based; conditions: HEK293 cells expressing hGLP-1R, 0.1% Casein, geometric mean; read-out: hGLP1R cAMP Rel EC50 nM (SEM, n)
human GLP-1 receptor (GLP-1R), sequence (P43220 24-463): as above

| SMILES | Ki (human GIP receptor) [nM] | Ki (human Gcg receptor) [nM] | EC50 [1] [nM] | Ki (human GLP-1R) [nM] | EC50 [2] [nM] |
| --- | --- | --- | --- | --- | --- |
| CC[C@H](C)[C@H](NC(=O)[C@H](CC(C)C)NC(=O)[C@H](Cc1ccc(O)cc1)NC(=O)[C@@H](CCC(=O)O)NC(=O)[C@@H](NC(=O)[C@H](Cc1ccccc1)NC(=O)[C@H](C)NC(=O)C(C)(C)NC(=O)[C@H](CCC(N)=O)NC(=O)[C@H](C)NC(=O)[C@H](CCCCNC(=O)COCCOCCNC(=O)COCCOCCNC(=O)CC[C@H](NC(=O)CCCCCCCCCCCCCCCCCCC(=O)O)C(=O)O)NC(=O)[C@H](CCCCN)NC(=O)[C@H](CC(=O)O)NC(=O)[C@H](CC(C)C)NC(=O)[C@H](CC(C)C)NC(=O)[C@@H](NC(=O)[C@H](CO)NC(=O)[C@H](Cc1ccc(O)cc1)NC(=O)[C@H](CC(=O)O)NC(=O)[C@H](CO)NC(=O)[C@@H](NC(=O)[C@H](Cc1ccccc1)NC(=O)[C@@H](NC(=O)CNC(=O)[C@H](CCC(=O)O)NC(=O)C(C)(C)NC(=O)[C@@H](N)Cc1ccc(O)cc1)[C@@H](C)O)[C@@H](C)O)[C@@H](C)CC)[C@@H](C)CC)C(=O)N[C@@H](CCC(=O)O)C(=O)NCC(=O)NCC(=O)N1CCC[C@H]1C(=O)N[C@@H](CO)C(=O)N[C@@H](CO)C(=O)NCC(=O)N[C@@H](C)C(=O)N1CCC[C@H]1C(=O)N1CCC[C@H]1C(=O)N1CCC[C@H]1C(=O)N[C@@H](CO)C(N)=O [Example 84] | 0.143 | > 1100 | 0.0915 | 10.2 | 0.374 |
| CC[C@H](C)[C@H](NC(=O)[C@H](CC(C)C)NC(=O)[C@H](Cc1ccc(O)cc1)NC(=O)[C@H](CCC(=O)O)NC(=O)[C@@H](NC(=O)[C@H](Cc1ccccc1)NC(=O)[C@H](C)NC(=O)[C@H](Cc1c[nH]cn1)NC(=O)[C@H](CCC(N)=O)NC(=O)[C@H](C)NC(=O)[C@H](CCCCNC(=O)COCCOCCNC(=O)COCCOCCNC(=O)CC[C@H](NC(=O)CCCCCCCCCCCCCCCCCCC(=O)O)C(=O)O)NC(=O)[C@H](CCC(=O)O)NC(=O)[C@H](CC(=O)O)NC(=O)[C@H](CC(C)C)NC(=O)[C@](C)(CC(C)C)NC(=O)[C@@H](NC(=O)[C@H](CO)NC(=O)[C@H](Cc1ccc(O)cc1)NC(=O)[C@H](CC(=O)O)NC(=O)[C@H](CO)NC(=O)[C@@H](NC(=O)[C@H](Cc1ccccc1)NC(=O)[C@@H](NC(=O)CNC(=O)[C@H](CCC(=O)O)NC(=O)C(C)(C)NC(=O)[C@@H](N)Cc1c[nH]cn1)[C@@H](C)O)[C@@H](C)O)[C@@H](C)CC)[C@@H](C)CC)C(=O)N[C@@H](CCC(=O)O)C(=O)NCC(=O)NCC(=O)N1CCC[C@H]1C(=O)N[C@@H](CO)C(=O)N[C@@H](CO)C(=O)NCC(=O)N[C@@H](C)C(=O)N1CCC[C@H]1C(=O)N1CCC[C@H]1C(=O)N1CCC[C@H]1C(=O)N[C@@H](CO)C(N)=O [Example 55] (H-H[Aib]EGTFTSDYSI[αMeL]LDEK([AEEA-AEEA-γGlu-C20 diacid])AQHAFIEYLIEGGPSSGAPPPS-NH2) | 6.24 | > 1100 | 5.45 | 7.29 | 0.0286 |
| CC[C@@H](C)[C@@H](NC(=O)[C@H](CO)NC(=O)[C@H](Cc1ccc(O)cc1)NC(=O)[C@H](CC(=O)O)NC(=O)[C@H](CO)NC(=O)[C@@H](NC(=O)[C@H](Cc1ccccc1)NC(=O)[C@@H](NC(=O)CNC(=O)[C@H](CCC(=O)O)NC(=O)C(C)(C)NC(=O)[C@@H](N)Cc1ccc(O)cc1)[C@@H](C)O)[C@@H](C)O)C(=O)N[C@@H](CC(C)C)C(=O)N[C@@H](CC(C)C)C(=O)N[C@@H](CC(=O)O)C(=O)N[C@@H](CCCCN)C(=O)N[C@@H](CCCCNC(=O)COCCOCCNC(=O)COCCOCCNC(=O)CC[C@H](NC(=O)CCCCCCCCCCCCCCCCCCC(=O)O)C(=O)O)C(=O)N[C@@H](C)C(=O)N[C@@H](CCC(N)=O)C(=O)NC(C)(C)C(=O)N[C@@H](C)C(=O)N[C@@H](Cc1ccccc1)C(=O)N[C@H](C(=O)N[C@@H](CCC(=O)O)C(=O)N[C@@H](Cc1ccc(O)cc1)C(=O)N[C@@H](CC(C)C)C(=O)N[C@H](C(=O)N[C@@H](CCC(=O)O)C(=O)NCC(=O)NCC(=O)N1CCC[C@H]1C(=O)N[C@@H](CO)C(=O)N[C@@H](CO)C(=O)NCC(=O)N[C@@H](C)C(=O)N1CCC[C@H]1C(=O)N1CCC[C@H]1C(=O)N1CCC[C@H]1C(=O)N[C@@H](CO)C(N)=O)[C@@H](C)CC)[C@@H](C)CC [Example 82] | 14.9 | > 1060 | 24.3 | 6.82 | 26.1 |
| CC[C@H](C)[C@H](NC(=O)[C@H](CC(C)C)NC(=O)[C@H](Cc1ccc(O)cc1)NC(=O)[C@H](CCC(=O)O)NC(=O)[C@@H](NC(=O)[C@H](Cc1ccccc1)NC(=O)[C@H](C)NC(=O)C(C)(C)NC(=O)[C@H](CCC(N)=O)NC(=O)[C@H](C)NC(=O)[C@H](CCCCNC(=O)COCCOCCNC(=O)COCCOCCNC(=O)CC[C@H](NC(=O)CC[C@H](NC(=O)CCCCCCCCCCCCCCCCCCC(=O)O)C(=O)O)C(=O)O)NC(=O)[C@H](CCCCN)NC(=O)[C@H](CC(=O)O)NC(=O)[C@H](CC(C)C)NC(=O)[C@](C)(CC(C)C)NC(=O)[C@@H](NC(=O)[C@H](CO)NC(=O)[C@H](Cc1ccc(O)cc1)NC(=O)[C@H](CC(=O)O)NC(=O)[C@H](CO)NC(=O)[C@@H](NC(=O)[C@](C)(Cc1ccccc1)NC(=O)[C@@H](NC(=O)CNC(=O)[C@H](CCC(=O)O)NC(=O)C(C)(C)NC(=O)[C@@H](N)Cc1ccc(O)cc1)[C@@H](C)O)[C@@H](C)O)[C@@H](C)CC)[C@@H](C)CC)C(=O)N[C@@H](CCC(=O)O)C(=O)NCC(=O)NCC(=O)N1CCC[C@H]1C(=O)N[C@@H](CO)C(=O)N[C@@H](CO)C(=O)NCC(=O)N[C@@H](C)C(=O)N1CCC[C@H]1C(=O)N1CCC[C@H]1C(=O)N1CCC[C@H]1C(=O)N[C@@H](CO)C(N)=O [Example 125] | 0.0624 | 54.4 | 0.0381 | 3.19 | 0.0478 |
| CC[C@H](C)[C@H](NC(=O)[C@H](CC(C)C)NC(=O)[C@H](Cc1ccc(O)cc1)NC(=O)[C@@H](CCC(=O)O)NC(=O)[C@@H](NC(=O)[C@H](Cc1ccccc1)NC(=O)[C@H](CCC(=O)O)NC(=O)C(C)(C)NC(=O)[C@H](CCC(N)=O)NC(=O)[C@H](C)NC(=O)[C@H](CCCCNC(=O)COCCOCCNC(=O)COCCOCCNC(=O)CC[C@H](NC(=O)CCCCCCCCCCCCCCCCC(=O)O)C(=O)O)NC(=O)[C@H](CCN)NC(=O)[C@H](CC(=O)O)NC(=O)[C@H](CC(C)C)NC(=O)[C@](C)(CC(C)C)NC(=O)[C@@H](NC(=O)[C@H](CO)NC(=O)[C@H](Cc1ccncc1)NC(=O)[C@H](CC(=O)O)NC(=O)[C@H](CO)NC(=O)[C@@H](NC(=O)[C@](C)(Cc1ccccc1F)NC(=O)[C@@H](NC(=O)CNC(=O)[C@H](CCC(=O)O)NC(=O)C(C)(C)NC(=O)[C@@H](N)Cc1ccc(O)cc1)[C@@H](C)O)[C@@H](C)O)[C@@H](C)CC)[C@@H](C)CC)C(=O)N[C@@H](CCC(=O)O)C(=O)NCC(=O)NCC(=O)N1CCC[C@H]1C(=O)N[C@@H](CO)C(=O)N[C@@H](CO)C(=O)NCC(=O)N[C@@H](C)C(=O)N1CCC[C@H]1C(=O)N1CCC[C@H]1C(=O)N1CCC[C@H]1C(=O)N[C@@H](CO)C(N)=O [Example 233] (H-Y[Aib]EGT[αMePhe(2-F)]TSD[4Pal]SI[αMeL]LD[Dab]K([AEEA-AEEA-γGlu-C18 diacid])AQ[Aib]EFI[dE]YLIEGGPSSGAPPPS-NH2) | 0.0445 | > 1150 | 0.0288 | 5.99 | 0.0549 |
| CC[C@H](C)[C@H](NC(=O)[C@H](CC(C)C)NC(=O)[C@H](Cc1ccc(O)cc1)NC(=O)[C@H](CCC(=O)O)NC(=O)[C@@H](NC(=O)[C@H](Cc1ccccc1)NC(=O)[C@H](C)NC(=O)C(C)(C)NC(=O)[C@H](CCC(N)=O)NC(=O)[C@H](C)NC(=O)[C@H](CCCCNC(=O)COCCOCCNC(=O)COCCOCCNC(=O)CC[C@H](NC(=O)CCCCCCCCCCCCCCCCCCC(=O)O)C(=O)O)NC(=O)[C@H](CCCCN)NC(=O)[C@H](CC(=O)O)NC(=O)[C@H](CC(C)C)NC(=O)[C@H](CC(C)C)NC(=O)[C@@H](NC(=O)[C@H](CO)NC(=O)[C@H](Cc1ccc(O)cc1)NC(=O)[C@H](CC(=O)O)NC(=O)[C@H](CO)NC(=O)[C@@H](NC(=O)[C@H](Cc1ccccc1)NC(=O)[C@@H](NC(=O)CNC(=O)[C@H](CCC(=O)O)NC(=O)C(C)(C)NC(=O)[C@@H](N)Cc1ccc(O)cc1)[C@@H](C)O)[C@@H](C)O)[C@@H](C)CC)[C@@H](C)CC)C(=O)N[C@@H](CCC(=O)O)C(=O)NCC(=O)NCC(=O)N1CCC[C@H]1C(=O)N[C@@H](CO)C(=O)N[C@@H](CO)C(=O)NCC(=O)N[C@@H](C)C(=O)N1CCC[C@H]1C(=O)N1CCC[C@H]1C(=O)N1CCC[C@H]1C(=O)N[C@@H](CO)C(N)=O [Example 8] | 0.0772 | 206 | 0.0848 | 2.84 | 0.148 |
